Laboratory results as given in ChEMBL document CHEMBL1201862, “PubChem BioAssay data set” (2004).
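All cell lines were grown in 96-well plates and treated with compound for 48 hours. Abbreviation: GI50, concentration required for 50% inhibition of growth.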 Activity calls are given as the source filed them. No stated cut-off is given here; in the data, active = GI50 up to about 1.1 µM and inactive = higher.

Assays:
Test in all cases: NCI tumour cell line growth inhibition, 48 h
MDA-MB-231 = system: MDA-MB-231
UACC-257 = system: UACC-257
MCF7 = system: MCF7
SK-MEL-28 = system: SK-MEL-28
SR = system: SR
HT-29 = system: HT-29
SF-268 = system: SF-268
OVCAR-3 = system: OVCAR-3
K562 = system: K562
MOLT-4 = system: MOLT-4
U-251 = system: U-251
COLO 205 = system: COLO 205
SW-620 = system: SW-620
HCT-15 = system: HCT-15
SK-MEL-2 = system: SK-MEL-2
OVCAR-8 = system: OVCAR-8
Hs-578T = system: Hs-578T
A498 = system: A498
NCI-H23 = system: NCI-H23
ACHN = system: ACHN
RPMI-8226 = system: RPMI-8226
OVCAR-4 = system: OVCAR-4
UO-31 = system: UO-31
NCI-H226 = system: NCI-H226
A549 = system: A549
HCT-116 = system: HCT-116
LOX IMVI = system: LOX IMVI
CCRF-CEM = system: CCRF-CEM
MDA-N = system: MDA-N
786-0 = system: 786-0
SNB-19 = system: SNB-19
DU-145 = system: DU-145
SK-MEL-5 = system: SK-MEL-5
SN12C = system: SN12C
EKVX = system: EKVX
SF-295 = system: SF-295
IGROV-1 = system: IGROV-1
HOP-92 = system: HOP-92
M14 = system: M14
SK-OV-3 = system: SK-OV-3
KM12 = system: KM12
MDA-MB-435 = system: MDA-MB-435
NCI/ADR-RES = system: NCI/ADR-RES
UACC-62 = system: UACC-62
PC-3 = system: PC-3
SNB-75 = system: SNB-75
OVCAR-5 = system: OVCAR-5
HOP-62 = system: HOP-62

Measured: GI50

O=C1/C(=C/c2ccccc2)NC(=S)N1CN1CCCCC1
> 100 µM: HCT-15
inactive: MDA-MB-231 > 100 µM | UACC-257 16.3 µM | MCF7 > 100 µM | SK-MEL-28 > 100 µM | SR > 100 µM | HT-29 > 100 µM | SF-268 > 100 µM | OVCAR-3 > 100 µM | K562 > 100 µM | MOLT-4 > 100 µM | U-251 > 100 µM | COLO 205 > 100 µM | SW-620 > 100 µM | SK-MEL-2 > 100 µM | OVCAR-8 > 100 µM | Hs-578T > 100 µM | A498 99.5 µM | NCI-H23 > 100 µM | ACHN > 100 µM | RPMI-8226 > 100 µM | OVCAR-4 15 µM | UO-31 > 100 µM | NCI-H226 > 100 µM | A549 > 100 µM | HCT-116 > 100 µM | LOX IMVI > 100 µM | CCRF-CEM > 100 µM | MDA-N > 100 µM | 786-0 > 100 µM | SNB-19 > 100 µM | DU-145 > 100 µM | SK-MEL-5 > 100 µM | SN12C > 100 µM | EKVX > 100 µM | SF-295 > 100 µM | IGROV-1 > 100 µM | HOP-92 > 100 µM | M14 > 100 µM | SK-OV-3 > 100 µM | KM12 > 100 µM | MDA-MB-435 > 100 µM | NCI/ADR-RES > 100 µM | UACC-62 > 100 µM | PC-3 > 100 µM | SNB-75 > 100 µM | OVCAR-5 > 100 µM | HOP-62 > 100 µM
